From patent US20040063662A1, “Selenophene anti-tumor agents” (priority 1996, published 2004)

Legend:
HCT-15 = assay: NCI human tumor cell panel: HCT-15 (Colon Cancer); type: cell-based; conditions: HCT-15, Colon Cancer; for GI50: read-out: Log10 GI50 (converted); for IC (TGI): read-out: Log10 TGI (converted)
RPMI-8226 = assay: NCI human tumor cell panel: RPMI-8226 (Leukemia); type: cell-based; conditions: RPMI-8226, Leukemia; for GI50: read-out: Log10 GI50 (converted); for IC (TGI): read-out: Log10 TGI
CAKI-1 = assay: NCI human tumor cell panel: CAKI-1 (Renal Cancer); type: cell-based; conditions: CAKI-1, Renal Cancer; for GI50: read-out: Log10 GI50 (converted); for IC (TGI): read-out: Log10 TGI (converted)
DU-145 = assay: NCI human tumor cell panel: DU-145 (Prostate Cancer); type: cell-based; conditions: DU-145, Prostate Cancer; for GI50: read-out: Log10 GI50 (converted); for IC (TGI): read-out: Log10 TGI (converted)
K-562 = assay: NCI human tumor cell panel: K-562 (Leukemia); type: cell-based; conditions: K562, K-562, Leukemia; for GI50: read-out: Log10 GI50 (converted); for IC (TGI): read-out: Log10 TGI (converted)
RXF-393 = assay: NCI human tumor cell panel: RXF-393 (Renal Cancer); type: cell-based; conditions: RXF-393, Renal Cancer; for GI50: read-out: Log10 GI50 (converted); for IC (TGI): read-out: Log10 TGI (converted)
BT-549 = assay: NCI human tumor cell panel: BT-549 (Breast Cancer); type: cell-based; conditions: BT-549, Breast Cancer; for GI50: read-out: Log10 GI50 (converted); for IC (TGI): read-out: Log10 TGI (converted)
UO-31 = assay: NCI human tumor cell panel: UO-31 (Renal Cancer); type: cell-based; conditions: UO-31, Renal Cancer; for GI50: read-out: Log10 GI50 (converted); for IC (TGI): read-out: Log10 TGI (converted)
HCC-2998 = assay: NCI human tumor cell panel: HCC-2998 (Colon Cancer); type: cell-based; conditions: HCC-2998, Colon Cancer; for GI50: read-out: Log10 GI50 (converted); for IC (TGI): read-out: Log10 TGI (converted)
T-47D = assay: NCI human tumor cell panel: T-47D (Breast Cancer); type: cell-based; conditions: T47D, Breast Cancer; for GI50: read-out: Log10 GI50 (converted); for IC (TGI): read-out: Log10 TGI (converted)
IGROV1 = assay: NCI human tumor cell panel: IGROV1 (Ovarian Cancer); type: cell-based; conditions: IGROV-1, IGROV1, Ovarian Cancer; for GI50: read-out: Log10 GI50 (converted); for IC (TGI): read-out: Log10 TGI (converted)
HL-60(TB) = assay: NCI human tumor cell panel: HL-60(TB) (Leukemia); type: cell-based; conditions: Leukemia; for GI50: read-out: Log10 GI50 (converted)
LOX IMVI = assay: NCI human tumor cell panel: LOX IMVI (Melanoma); type: cell-based; conditions: Melanoma; for GI50: read-out: Log10 GI50 (converted); for IC (TGI): read-out: Log10 TGI (converted)
SN12C = assay: NCI human tumor cell panel: SN12C (Renal Cancer); type: cell-based; conditions: Renal Cancer; for GI50: read-out: Log10 GI50 (converted); for IC (TGI): read-out: Log10 TGI (converted)
SF-268 = assay: NCI human tumor cell panel: SF-268 (CNS Cancer); type: cell-based; conditions: SF-268, CNS Cancer; for GI50: read-out: Log10 GI50 (converted); for IC (TGI): read-out: Log10 TGI (converted)
[1] = system: panel of sixty different human tumor cell lines; assay: NCI human tumor cell panel: whole panel (mean graph summary)
COLO 205 = assay: NCI human tumor cell panel: COLO 205 (Colon Cancer); type: cell-based; conditions: COLO 205, Colon Cancer; for GI50: read-out: Log10 GI50 (converted); for IC (TGI): read-out: Log10 TGI (converted)
SK-MEL-2 = assay: NCI human tumor cell panel: SK-MEL-2 (Melanoma); type: cell-based; conditions: SK-MEL-2, Melanoma; for GI50: read-out: Log10 GI50 (converted); for IC (TGI): read-out: Log10 TGI (converted)
EKVX = assay: NCI human tumor cell panel: EKVX (Non-Small Cell Lung Cancer); type: cell-based; conditions: Non-Small Cell Lung Cancer; for GI50: read-out: Log10 GI50 (converted); for IC (TGI): read-out: Log10 TGI (converted)
NCI-H226 = assay: NCI human tumor cell panel: NCI-H226 (Non-Small Cell Lung Cancer); type: cell-based; conditions: NCI-H226, Non-Small Cell Lung Cancer; for GI50: read-out: Log10 GI50 (converted); for IC (TGI): read-out: Log10 TGI (converted)
OVCAR-5 = assay: NCI human tumor cell panel: OVCAR-5 (Ovarian Cancer); type: cell-based; conditions: OVCAR-5, Ovarian Cancer; for GI50: read-out: Log10 GI50 (converted); for IC (TGI): read-out: Log10 TGI (converted)
OVCAR-8 = assay: NCI human tumor cell panel: OVCAR-8 (Ovarian Cancer); type: cell-based; conditions: OVCAR-8, Ovarian Cancer; for GI50: read-out: Log10 GI50 (converted); for IC (TGI): read-out: Log10 TGI (converted)
SNB-75 = assay: NCI human tumor cell panel: SNB-75 (CNS Cancer); type: cell-based; conditions: SNB-75, CNS Cancer; for GI50: read-out: Log10 GI50 (converted); for IC (TGI): read-out: Log10 TGI (converted)
786-0 = assay: NCI human tumor cell panel: 786-0 (Renal Cancer); type: cell-based; conditions: 786-0, Renal Cancer; for GI50: read-out: Log10 GI50 (converted); for IC (TGI): read-out: Log10 TGI (converted)
KM12 = assay: NCI human tumor cell panel: KM12 (Colon Cancer); type: cell-based; conditions: KM12, Colon Cancer; for GI50: read-out: Log10 GI50 (converted); for IC (TGI): read-out: Log10 TGI (converted)
NCI-H522 = assay: NCI human tumor cell panel: NCI-H522 (Non-Small Cell Lung Cancer); conditions: for GI50: NCI-H522, read-out: Log10 GI50 (converted); for IC (TGI): NCI-H522, read-out: Log10 TGI
SW-620 = assay: NCI human tumor cell panel: SW-620 (Colon Cancer); type: cell-based; conditions: SW-620, Colon Cancer
MDA-MB-231/ATCC = assay: NCI human tumor cell panel: MDA-MB-231/ATCC (Breast Cancer); type: cell-based; conditions: Homo sapiens, MDA-MB-231, MDA-MB-231/ATCC, Breast Cancer
[2] = read-out: Log10 GI50 (converted)
[3] = read-out: Log10 TGI (converted)

SMILES: O=Cc1ccc(-c2ccc(-c3ccc[se]3)[se]2)[se]1 [NSC 675244]
- GI50 (HCT-15): 7.41 µM
- IC (TGI) (HCT-15): 26.3 µM
- GI50 (RPMI-8226): 2.95 µM
- IC (TGI) (RPMI-8226): > 100 µM
- GI50 (CAKI-1): 0.204 µM
- IC (TGI) (CAKI-1): 0.708 µM
- GI50 (DU-145): 12.6 µM
- IC (TGI) (DU-145): 25.1 µM
- GI50 (K-562): 1.35 µM
- IC (TGI) (K-562): 33.1 µM
- GI50 (RXF-393): 1.95 µM
- IC (TGI) (RXF-393): 8.13 µM
- GI50 (BT-549): 12.3 µM
- IC (TGI) (BT-549): 30.9 µM
- GI50 (UO-31): 15.5 µM
- IC (TGI) (UO-31): 28.8 µM
- GI50 (HCC-2998): 2.51 µM
- IC (TGI) (HCC-2998): 11.5 µM
- GI50 (T-47D): 11.2 µM
- IC (TGI) (T-47D): 23.4 µM
- GI50 (IGROV1): 3.31 µM
- IC (TGI) (IGROV1): 15.5 µM
- GI50 (HL-60(TB)): 2.45 µM
- GI50 (LOX IMVI): 5.62 µM
- IC (TGI) (LOX IMVI): 20.9 µM
- GI50 (SN12C): 10 µM
- IC (TGI) (SN12C): 22.4 µM
- GI50 (SF-268): 4.47 µM
- IC (TGI) (SF-268): 57.5 µM
- GI50 ([1]; Homo sapiens, read-out: Log10 GI50, cell line not given (converted)): 3.8 µM
- CC50 ([1]; Homo sapiens, read-out: Log10 LC50, cell line not given (converted)): > 100 µM
- Log10 GI50 ([1]; cell line not given): −5.39
- Log10 TGI ([1]; cell line not given): −4.45
- GI50 (COLO 205): 3.16 µM
- IC (TGI) (COLO 205): 12 µM
- GI50 (SK-MEL-2): 16.6 µM
- IC (TGI) (SK-MEL-2): 45.7 µM
- GI50 (EKVX): 25.1 µM
- IC (TGI) (EKVX): 64.6 µM
- GI50 (NCI-H226): 2.24 µM
- IC (TGI) (NCI-H226): 5.13 µM
- GI50 (OVCAR-5): 0.55 µM
- IC (TGI) (OVCAR-5): 13.2 µM
- GI50 (OVCAR-8): 9.12 µM
- IC (TGI) (OVCAR-8): 30.2 µM
- GI50 (SNB-75): 2 µM
- IC (TGI) (SNB-75): 6.46 µM
- GI50 (786-0): 6.03 µM
- IC (TGI) (786-0): 18.6 µM
- GI50 (KM12): 6.31 µM
- IC (TGI) (KM12): 19.5 µM
- GI50 (NCI-H522): 5.25 µM
- IC (TGI) (NCI-H522): 17.4 µM

SMILES: O=Cc1ccc(-c2ccc(-c3ccc(C=O)[se]3)[se]2)[se]1 [NSC 675245]
- GI50 (HCT-15): > 100 µM
- IC (TGI) (HCT-15): > 100 µM
- GI50 (RPMI-8226): > 100 µM
- IC (TGI) (RPMI-8226): > 100 µM
- GI50 (CAKI-1): 0.269 µM
- IC (TGI) (CAKI-1): 0.933 µM
- GI50 (DU-145): > 100 µM
- IC (TGI) (DU-145): > 100 µM
- GI50 (K-562): 6.76 µM
- IC (TGI) (K-562): > 100 µM
- GI50 (RXF-393): 12 µM
- IC (TGI) (RXF-393): > 100 µM
- GI50 (BT-549): > 100 µM
- IC (TGI) (BT-549): > 100 µM
- GI50 (UO-31): > 100 µM
- IC (TGI) (UO-31): > 100 µM
- GI50 (HCC-2998): 4.79 µM
- IC (TGI) (HCC-2998): > 100 µM
- GI50 (T-47D): 15.8 µM
- IC (TGI) (T-47D): > 100 µM
- GI50 (IGROV1): 67.6 µM
- IC (TGI) (IGROV1): 25.7 µM
- GI50 (HL-60(TB)): > 100 µM
- IC (TGI) (HL-60(TB); read-out: Log10 TGI): > 100 µM
- GI50 (LOX IMVI): > 100 µM
- IC (TGI) (LOX IMVI): > 100 µM
- GI50 (SN12C): > 100 µM
- IC (TGI) (SN12C): > 100 µM
- GI50 (SF-268): > 100 µM
- IC (TGI) (SF-268): > 100 µM
- GI50 (COLO 205): > 100 µM
- IC (TGI) (COLO 205): > 100 µM
- GI50 (SK-MEL-2): > 100 µM
- IC (TGI) (SK-MEL-2): > 100 µM
- GI50 (EKVX): > 100 µM
- IC (TGI) (EKVX): > 100 µM
- GI50 (NCI-H226): 0.977 µM
- IC (TGI) (NCI-H226): 3.63 µM
- GI50 (OVCAR-5): 0.776 µM
- IC (TGI) (OVCAR-5): > 100 µM
- GI50 (OVCAR-8): > 100 µM
- IC (TGI) (OVCAR-8): > 100 µM
- GI50 (SNB-75): 10 µM
- IC (TGI) (SNB-75): > 100 µM
- GI50 (786-0): 67.6 µM
- IC (TGI) (786-0): > 100 µM
- GI50 (SW-620; [2]): 4.17 µM
- IC (TGI) (SW-620; [3]): > 100 µM
- GI50 (KM12): > 100 µM
- IC (TGI) (KM12): > 100 µM
- GI50 (MDA-MB-231/ATCC; [2]): > 100 µM
- IC (TGI) (MDA-MB-231/ATCC; [3]): > 100 µM
- GI50 (NCI-H522): 21.9 µM
- IC (TGI) (NCI-H522): 45.7 µM
